This is an account of results in patent US9790221B2, “Heteroaryl compounds as IRAK inhibitors and uses thereof” (Merck Patent GmbH, priority 2014, dated 2017).

Test [1] concerns TLR7 induced IL-6 secretion in human mononuclear cells (PBMC's). Briefly: TLR7 induced IL-6 in human PBMC's. The following applies: read-out: TLR7 induced IL-6 secretion in hPBMC's (IC50). It is filed as cell-based. As to the method:
TLR7 Induced IL-6 in Human PBMC's
Human PBMC assay was used as one of the functional assay a to monitor the activity of IRAK1 and IRAK4 small molecule inhibitors on TLR7 induced IL-6 secretion in human mononuclear cells (PBMC's). Human PBMCs were prepared from buffy coats (whole blood enriched with leukocytes and platelets) obtained from healthy volunteers used either fresh or frozen are plated in assay media (RPMI+2% P/S/L-glu+10% HI-FBS) and pre-treated with compounds in DMSO/media (range of concentrations from 25 uM to 0.4 nM) or controls (0.25% DMSO) for 30 minutes at 37° C. in assay media. Following pre-treatment with IRAK1 and IRAK4 inhibitors, PBMC's were stimulated with TLR7 specific ligand (2 uM) overnight (16-18 hrs) at 37° C. After incubation supernatant was transferred to 384 well PE AlphaPlate-384 (6005350) and IL-6 is quantified using Perkin Elmer IL-6 Alpha LISA kit (AL223C). Plates were read on an Envision® plate reader with Alpha Technology®.

The target in another test is IRAK4 (Homo sapiens (Human), UniProt Q9NWZ3). Briefly: IRAK4 enzymatic assay. The class given is biochemical. A digest of the protocol: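 Recombinant His-TEV-IRAK4 (20 ng/well) phosphorylating biotinylated STK1 peptide (300 nM) with 2 μM ATP plus [^33P]ATP, 3 h at 30° C in pH 7.0 Hepes buffer with Mg2+ and Mn2+. Compounds 20 µM to 1 nM; EDTA stop, radioactivity captured on streptavidin FlashPlates.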
Chain of IRAK4 (Q9NWZ3 whole entry): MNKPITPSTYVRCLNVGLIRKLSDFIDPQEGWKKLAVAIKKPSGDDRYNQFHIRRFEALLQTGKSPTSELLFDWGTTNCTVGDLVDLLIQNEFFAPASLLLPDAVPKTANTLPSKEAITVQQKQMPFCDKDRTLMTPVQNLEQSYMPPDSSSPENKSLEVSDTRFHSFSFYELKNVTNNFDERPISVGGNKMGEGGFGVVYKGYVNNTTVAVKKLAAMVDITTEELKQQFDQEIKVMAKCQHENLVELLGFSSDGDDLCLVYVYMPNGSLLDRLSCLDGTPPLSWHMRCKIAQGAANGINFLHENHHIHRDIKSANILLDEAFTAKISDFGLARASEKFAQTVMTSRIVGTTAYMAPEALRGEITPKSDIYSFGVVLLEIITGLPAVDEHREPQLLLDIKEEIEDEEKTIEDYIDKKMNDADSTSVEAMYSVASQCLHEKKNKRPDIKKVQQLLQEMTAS

The target of test [2] is IRAK1 (His-TEV-IRAK1 (194-712)) (Homo sapiens (Human), UniProt P51617). Briefly: IRAK1 enzymatic assay. The class given is biochemical. A digest of the protocol: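 Recombinant His-TEV-IRAK1 (194-712), 15 ng/well, autophosphorylation with 1 μM ATP plus [33P]ATP, 3 h at 30° C in Hepes pH 7.0 buffer with MgCl2, DTT, EGTA, BSA and Triton; compounds from 20 µM to 1 nM. The reaction was stopped with EDTA, and radioactivity was counted in streptavidin FlashPlates.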
Chain of IRAK1 (His-TEV-IRAK1 (194-712)) (P51617 194-712): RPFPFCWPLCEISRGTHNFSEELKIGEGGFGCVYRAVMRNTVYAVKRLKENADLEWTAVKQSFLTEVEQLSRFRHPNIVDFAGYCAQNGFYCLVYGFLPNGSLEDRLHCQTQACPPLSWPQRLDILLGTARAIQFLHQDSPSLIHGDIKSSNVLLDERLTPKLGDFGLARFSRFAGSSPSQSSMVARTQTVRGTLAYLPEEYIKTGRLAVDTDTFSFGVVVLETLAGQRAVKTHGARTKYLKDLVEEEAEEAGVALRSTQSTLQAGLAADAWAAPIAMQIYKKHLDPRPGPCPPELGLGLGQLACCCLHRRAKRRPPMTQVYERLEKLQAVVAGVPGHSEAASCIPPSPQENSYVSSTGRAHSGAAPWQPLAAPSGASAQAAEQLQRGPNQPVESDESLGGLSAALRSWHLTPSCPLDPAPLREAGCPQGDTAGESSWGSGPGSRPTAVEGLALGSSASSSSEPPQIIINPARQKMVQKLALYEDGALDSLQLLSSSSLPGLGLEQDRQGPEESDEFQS

Structures can show the parent of a compound that is named as a salt. Where two headings read alike, the source gives them in different places.

In the case of `Cn1cc(-c2cccc(-c3ncc(-c4cnn(C)c4)c(NC4CCCC4O)n3)c2)cn1` (stereo not drawn) [Example 238], the concentration for half-maximal inhibition (IC50) in test [1] (Homo sapiens, PBMC) was 0.1 to 1 µM; against IRAK4 it was under 0.1 µM; in test [2] it was 0.1 to 1 µM.

Consider `Cn1cc(-c2cccc(-c3ncc(-c4cnn(C)c4)c(NCC4[C@H]5CNC[C@@H]45)n3)c2)cn1` (stereo partly drawn) [Example 77], for which the IC50 in test [1] (Homo sapiens, PBMC) was 1 to 5 µM; against IRAK4, 0.1 to 1 µM; in test [2], over 5 µM.

In the case of `Cn1cc(-c2cccc(-c3ccc(-c4cnn(C5CCNCC5)c4)cn3)c2)cn1` [Example 1, 2-[3-(1-Methyl-1H-pyrazol-4-yl)-phenyl]-5-(1-piperidin-4-yl-1H-pyrazol-4-yl)-pyridine Hydrochloride], the 50% inhibitory concentration (IC50) in test [1] (Homo sapiens, PBMC) was 1 to 5 µM; at IRAK4, 0.1 to 1 µM; in test [2], over 5 µM.

Consider `Cn1cc(-c2cccc(-c3ncc(-c4cnn(C)c4)c(NCC4(CO)CCC4)n3)c2)cn1` [Example 53], for which the IC50 in test [1] (Homo sapiens, PBMC) was 1 to 5 µM; against IRAK4, under 0.1 µM; in test [2] it was 0.1 to 1 µM.

As to `Cc1nnc(-c2cnc(-c3cccc(-c4cnn(C)c4)c3)nc2N[C@H]2CC[C@@H](NS(C)(=O)=O)CC2)s1` [Example 129], the IC50 in test [1] (Homo sapiens, PBMC) was 0.1 to 1 µM; against IRAK4 it was under 0.1 µM; in test [2], 0.1 to 1 µM.

As to `Cn1cc(-c2cccc(-c3ncc(-c4cnn(C)c4)c(NCC4(NS(C)(=O)=O)CCCCC4)n3)c2)cn1` [Example 262], the 50% inhibitory concentration (IC50) in test [1] (Homo sapiens, PBMC) was 1 to 5 µM; at IRAK4 it was under 0.1 µM; in test [2] it was 0.1 to 1 µM.

Consider `Cn1cc(-c2cccc(-c3ncc(-c4ccn(C)n4)c(N[C@@H]4CCC[C@@H](O)[C@H]4O)n3)c2)cn1` (racemic) [Example 131], for which the 50% inhibitory concentration (IC50) in test [1] (Homo sapiens, PBMC) is 1 to 5 µM; at IRAK4 it was under 0.1 µM; in test [2], 1 to 5 µM.

Regarding `Cn1cc(-c2cccc(-c3ncc(-c4cnn(C)c4)c(NCC(F)(F)C(F)(F)C(F)(F)F)n3)c2)cn1` [Example 272], the IC50 in test [1] is 1 to 5 µM; on IRAK4 it was under 0.1 µM; in test [2], 0.1 to 1 µM.

As to `CN(CC1(F)COC1)c1nc(-c2cccc(-c3cnn(C)c3)c2)ncc1-c1cnn(C)c1` [Example 45], the half-inhibitory concentration (IC50) lay in the range of 1 to 5 µM in test [1] (Homo sapiens, PBMC); 0.1 to 1 µM at IRAK4; 1 to 5 µM in test [2].

For the molecule `Cn1cc(-c2cccc(-c3ncc(-c4cnn(C)c4)c(NCC4(C)CCC4)n3)c2)cn1` [Example 43], the IC50 in test [1] (Homo sapiens, PBMC) was 1 to 5 µM; against IRAK4, 0.1 to 1 µM; in test [2] it was 0.1 to 1 µM.

In the case of `Cn1cc(-c2cccc(-c3ncc(-c4ccn(C)n4)c(NC4CCOCC4)n3)c2)cn1` [Example 138], the half-maximal inhibitory concentration (IC50) is 1 to 5 µM in test [1] (Homo sapiens, PBMC); under 0.1 µM against IRAK4; 1 to 5 µM in test [2].

Turning to `Cn1cc(-c2cccc(-c3ncc(-c4cnn(C)c4)c(N[C@H]4CCC[C@@H]4O)n3)c2)cn1` (racemic) [Example 94], the half-inhibitory concentration (IC50) in test [1] (Homo sapiens, PBMC) was 1 to 5 µM; against IRAK4 it was under 0.1 µM; in test [2] it was 0.1 to 1 µM.

Regarding `Cn1cc(-c2cccc(-c3ncc(-c4cnn(C)c4)c(NC45CC(N)(C4)C5)n3)c2)cn1` [Example 269], the IC50 in test [1] (Homo sapiens, PBMC) is 0.1 to 1 µM; against IRAK4, under 0.1 µM; in test [2], 0.1 to 1 µM.

Turning to `Cn1cc(-c2cccc(-c3ncc(-c4cnn(C)c4)c(N[C@H]4C[C@H](CNS(C)(=O)=O)C4)n3)c2)cn1` [Example 196, N-(3-{5-(1-Methyl-1H-pyrazol-4-yl)-2-[3-(1-methyl-1H-pyrazol-4-yl)-phenyl]-pyrimidin-4-ylamino}-cyclobutylmethyl)-methanesulfonamide], the IC50 in test [1] (Homo sapiens, PBMC) fell in the range of 1 to 5 µM; on IRAK4 it was 0.1 to 1 µM; in test [2], 0.1 to 1 µM.

As for `Cc1nnc(-c2cnc(-c3cccc(-c4cnn(C)c4)c3)nc2NC(C)C)s1` [Example 15, Isopropyl-[2-[3-(1-methyl-1H-pyrazol-4-yl)-phenyl]-5-(5-methyl-[1,3,4]thiadiazol-2-yl)-pyrimidin-4-yl]-amine], the IC50 is 0.1 to 1 µM in test [1] (Homo sapiens, PBMC); under 0.1 µM against IRAK4; 0.1 to 1 µM in test [2].

For the molecule `CC(=O)NC1(CNc2nc(-c3cccc(-c4cnn(C)c4)c3)ncc2-c2cnn(C)c2)CCCCC1` [Example 256], the 50% inhibitory concentration (IC50) in test [1] (Homo sapiens, PBMC) is 1 to 5 µM; against IRAK4, under 0.1 µM; in test [2], 1 to 5 µM.

In the case of `Cn1cc(-c2cccc(-c3ncc(-c4cnn(C)c4)c(N[C@H]4CC[C@H](O)[C@@H]4O)n3)c2)cn1` [Example 273], the 50% inhibitory concentration (IC50) in test [1] (Homo sapiens, PBMC) is 0.1 to 1 µM; at IRAK4, under 0.1 µM; in test [2], 0.1 to 1 µM.

On to `Cn1cc(-c2cccc(-c3ncc(-c4cnn(C)c4)c(NCC4CCNC(=O)C4)n3)c2)cn1` (stereo not drawn) [Example 76], for which the IC50 is over 5 µM in test [1] (Homo sapiens, PBMC); 0.1 to 1 µM against IRAK4; 1 to 5 µM in test [2].

Regarding `Cn1cc(-c2cccc(-c3ncc(-c4cnn(C)c4)c(N4CC[C@H](F)[C@@H](O)C4)n3)c2)cn1` [Example 280], the IC50 is 1 to 5 µM in test [1] (Homo sapiens, PBMC); under 0.1 µM against IRAK4; 0.1 to 1 µM in test [2].

For the molecule `Cn1cc(-c2cccc(-c3ncc(-c4cnn(C)c4)c(NC4CCS(=O)(=O)CC4)n3)c2)cn1` [Example 257], the IC50 is 1 to 5 µM in test [1] (Homo sapiens, PBMC); under 0.1 µM at IRAK4; 0.1 to 1 µM in test [2].

As to `Cc1nnc(-c2cnc(-c3cccc(-c4cnn(C)c4)c3)nc2N[C@H]2CC[C@H](NS(C)(=O)=O)CC2)s1` [Example 254], the IC50 was under 0.1 µM in test [1] (Homo sapiens, PBMC); under 0.1 µM at IRAK4; under 0.1 µM in test [2].

Take `Cc1nnc(-c2cnc(-c3cccc(-c4cnn(C)c4)c3)nc2NC2CCCNC2)s1` (stereo not drawn) [Example 17, [2-[3-(1-Methyl-1H-pyrazol-4-yl)-phenyl]-5-(5-methyl-[1,3,4]thiadiazol-2-yl)-pyrimidin-4-yl]-piperidin-3-yl-amine Hydrochloride]: the half-inhibitory concentration (IC50) in test [1] (Homo sapiens, PBMC) was 0.1 to 1 µM; against IRAK4 it was under 0.1 µM; in test [2], over 5 µM.

`Cn1cc(-c2cccc(-c3ncc(-c4cnn(C)c4)c(NC4CC(CN)C4)n3)c2)cn1` (stereo not drawn) [Example 188]: the IC50 is 1 to 5 µM in test [1] (Homo sapiens, PBMC); under 0.1 µM on IRAK4; under 0.1 µM in test [2].

As for `Cn1cc(-c2cccc(-c3ncc(-c4cnn(C)c4)c(N4CCC(O)CC4)n3)c2)cn1` [Example 219], the IC50 is 1 to 5 µM in test [1] (Homo sapiens, PBMC); under 0.1 µM against IRAK4; 0.1 to 1 µM in test [2].

For the molecule `Cn1cc(-c2cccc(-c3ncc(-c4cnn(C)c4)c(NCc4ccncc4)n3)c2)cn1` [Example 37], the concentration for half-maximal inhibition (IC50) fell in the range of 1 to 5 µM in test [1] (Homo sapiens, PBMC); 0.1 to 1 µM against IRAK4; 1 to 5 µM in test [2].

As for `Cn1cc(-c2cccc(-c3ncc(-c4cnn(C)c4)c(NC45CC(CN)(C4)C5)n3)c2)cn1` [Example 242], the IC50 is 0.1 to 1 µM in test [1] (Homo sapiens, PBMC); under 0.1 µM on IRAK4; 0.1 to 1 µM in test [2].

As for `Cc1ccc(-c2cnc(-c3cccc(-c4cnn(C)c4)c3)nc2NC2CCN(S(C)(=O)=O)CC2)cn1` [Example 215], the IC50 was 0.1 to 1 µM in test [1] (Homo sapiens, PBMC); under 0.1 µM against IRAK4; 0.1 to 1 µM in test [2].

Take `Cn1cc(-c2cccc(-c3ncc(-c4cnn(C)c4)c(N[C@@H]4CCC[C@@H](F)[C@@H]4O)n3)c2)cn1` (single isomer, unassigned) [Example 286]: the IC50 was 0.1 to 1 µM in test [1] (Homo sapiens, PBMC); under 0.1 µM against IRAK4; 0.1 to 1 µM in test [2].

For `Cn1cc(-c2cccc(-c3ncc(-c4cnn(C)c4)c(NC[C@H](O)CO)n3)c2)cn1` [Example 54], the half-maximal inhibitory concentration (IC50) in test [1] (Homo sapiens, PBMC) lay in the range of 1 to 5 µM; on IRAK4, 0.1 to 1 µM; in test [2] it was 0.1 to 1 µM.
